Laboratory results as given in patent US8575158B2, “1-phenyl-substituted heterocyclyl derivatives and their use as prostaglandin D2 receptor modulators” (Actelion Pharmaceuticals Ltd., priority 2010, dated 2013).
pIC50: −log10 of the molar value.

Target: T1, hCRTH2 receptor (Homo sapiens, UniProt Q9Y5Y4)
T1 construct: expressed in transfected cells; host or cells: HEK293
T1 sequence (Q9Y5Y4 1-395): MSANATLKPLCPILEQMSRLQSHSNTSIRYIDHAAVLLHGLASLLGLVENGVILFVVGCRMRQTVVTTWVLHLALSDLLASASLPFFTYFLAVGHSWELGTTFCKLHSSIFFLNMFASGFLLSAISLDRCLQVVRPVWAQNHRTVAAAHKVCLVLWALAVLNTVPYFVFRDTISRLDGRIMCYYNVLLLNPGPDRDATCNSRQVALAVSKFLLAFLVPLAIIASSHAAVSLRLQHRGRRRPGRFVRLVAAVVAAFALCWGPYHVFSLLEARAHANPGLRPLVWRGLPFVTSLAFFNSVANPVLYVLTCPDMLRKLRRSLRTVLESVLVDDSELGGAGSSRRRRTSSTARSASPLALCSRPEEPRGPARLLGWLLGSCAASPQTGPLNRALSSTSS
Assay: Radioligand displacement assay (3H-PGD2) on hCRTH2 receptor membranes
Format: binding
Conditions: antagonistic activity

[1] = 3H-PGD2 displacement on HEK293-hCRTH2 membrane fragments
[2] = 3H-PGD2 radioligand displacement, HEK293-hCRTH2 membranes

SMILES | pIC50 [1] | pIC50 [2]
O=C(O)COc1ccc(Cl)cc1C1c2ccccc2CCN1C(=O)OCC1CCCCC1 (racemic) [Example 262] | 8.03 | 
O=C(O)COc1ccc(Cl)cc1C1c2ccccc2CCN1C(=O)OCC1CCCC1 (racemic) [Example 264] | 7.88 | 
CCCCOC(=O)N1CCc2ccccc2C1c1cc(Cl)ccc1OCC(=O)O (racemic) [Example 266] | 7.61 | 
O=C(O)COc1ccc(Cl)cc1C1c2ccccc2CCN1C(=O)OCC1CC1 (racemic) [Example 268] | 7.56 | 
O=C(O)COc1ccccc1C1c2ccccc2CCN1C(=O)OCc1ccccc1 (racemic) [Example 366] |  | 7.38
Cc1cn(CCC(=O)N2CCc3ccccc3C2c2cc(Cl)ccc2OCC(=O)O)c2ccc(F)cc12 (racemic) [Example 368] |  | 7.68
O=C(O)COc1ccc(Cl)cc1C1c2ccccc2CCN1C(=O)CCn1ccc2cccnc21 (racemic) [Example 369] |  | 6.71
O=C(O)COc1ccc(Cl)cc1C1c2ccccc2CCN1C(=O)CCn1ccc2ccc(C(F)(F)F)cc21 (racemic) [Example 370] |  | 7.09
N#Cc1ccc2c(ccn2CCC(=O)N2CCc3ccccc3C2c2cc(Cl)ccc2OCC(=O)O)c1 (racemic) [Example 371] |  | 7.27
O=C(O)COc1ccc(Cl)cc1C1c2ccccc2CCN1C(=O)CCn1ccc2ccncc21 (racemic) [Example 372] |  | 6.22
COc1cc2c(ccn2CCC(=O)N2CCc3ccccc3C2c2cc(Cl)ccc2OCC(=O)O)cn1 (racemic) [Example 373] |  | 6.36
COc1ccc2ccn(CCC(=O)N3CCc4ccccc4C3c3cc(Cl)ccc3OCC(=O)O)c2n1 (racemic) [Example 374] |  | 7.91
COc1cc2c(ccn2CCC(=O)N2CCc3ccccc3C2c2cc(Cl)ccc2OCC(=O)O)cc1Cl (racemic) [Example 375] |  | 7.09
COc1cc(OC)c2ccn(CCC(=O)N3CCc4ccccc4C3c3cc(Cl)ccc3OCC(=O)O)c2n1 (racemic) [Example 376] |  | 7.49
COc1cc(OC)c2ccn(CCC(=O)N3CCc4ccccc4C3c3cc(Cl)ccc3OCC(=O)O)c2c1 (racemic) [Example 377] |  | 8.01
O=C(O)COc1ccc(Cl)cc1C1c2ccccc2CCN1C(=O)CCn1ccc2ccccc21 (racemic) [Example 378] |  | 7.94

SMILES | pIC50 [1] | pIC50 [2]
O=C(O)COc1ccc(Cl)cc1C1c2ccccc2CCN1C(=O)CCn1ccc2cc(F)ccc21 (racemic) [Example 379] |  | 7.77
O=C(O)COc1ccc(Cl)cc1C1c2ccccc2CCN1C(=O)CCn1ccc2cccc(Cl)c21 (racemic) [Example 380] |  | 7.61
O=C(O)COc1ccc(Cl)cc1C1c2ccccc2CCN1C(=O)CCn1ccc2ncccc21 (racemic) [Example 381] |  | 7.50
COc1cccc2c1ccn2CCC(=O)N1CCc2ccccc2C1c1cc(Cl)ccc1OCC(=O)O (racemic) [Example 382] |  | 7.68
O=C(O)COc1ccc(Cl)cc1C1c2ccccc2CCN1C(=O)CCn1nc(Cl)c2ccccc21 (racemic) [Example 383] |  | 8.07
Cc1ccc2ccn(CCC(=O)N3CCc4ccccc4C3c3cc(Cl)ccc3OCC(=O)O)c2c1 (racemic) [Example 384] |  | 7.83
O=C(O)COc1ccc(Cl)cc1C1c2ccccc2CCN1C(=O)CCn1ccc2cc(Cl)ccc21 (racemic) [Example 385] |  | 7.29
O=C(O)COc1ccc(Cl)cc1C1c2ccccc2CCN1C(=O)CCn1ccc2ccc(Cl)cc21 (racemic) [Example 386] |  | 7.94
O=C(O)COc1ccc(Cl)cc1C1c2ccccc2CCN1C(=O)CCn1ccc2c(F)cccc21 (racemic) [Example 387] |  | 7.44
O=C(O)COc1ccc(Cl)cc1C1c2ccccc2CCN1C(=O)CCn1ccc2ccc(F)cc21 (racemic) [Example 388] |  | 7.59
Cc1c(C)n(CCC(=O)N2CCc3ccccc3C2c2cc(Cl)ccc2OCC(=O)O)c2ccccc12 (racemic) [Example 389] |  | 7.15
COc1ccc2ccn(CCC(=O)N3CCc4ccccc4C3c3cc(Cl)ccc3OCC(=O)O)c2c1 (racemic) [Example 390] |  | 8.12
O=C(O)COc1ccc(Cl)cc1C1c2ccccc2CCN1C(=O)CCn1ccc2ncc(Cl)nc21 (racemic) [Example 404] |  | 7.37
O=C(O)COc1ccc(Cl)cc1C1c2ccccc2CCN1C(=O)CCn1c(C(F)(F)F)cc2ccccc21 (racemic) [Example 405] |  | 6.35
COc1ccccc1OCC(=O)N1CCc2ccccc2C1c1cc(Cl)ccc1OCC(=O)O (racemic) [Example 406] |  | 7.57

Now from value to compound:

pIC50 [1] | pIC50 [2] | SMILES
7.75 |  | Cc1cccc(COC(=O)N2CCc3ccccc3C2c2cc(Cl)ccc2OCC(=O)O)c1 (racemic) [Example 239]
7.73 |  | O=C(O)COc1ccc(Cl)cc1C1c2ccccc2CCN1C(=O)OCc1cccc(C(F)(F)F)c1 (racemic) [Example 240]
9.02 |  | O=C(O)COc1ccc(Cl)cc1C1c2ccccc2CCN1C(=O)OCc1ccc(Cl)cc1Cl (racemic) [Example 241]
8.97 |  | O=C(O)COc1ccc(Cl)cc1C1c2ccccc2CCN1C(=O)OCc1cccc(Cl)c1Cl (racemic) [Example 242]
8.19 |  | O=C(O)COc1ccc(Cl)cc1C1c2ccccc2CCN1C(=O)OCc1c(Cl)cccc1Cl (racemic) [Example 243]
8.12 |  | COc1cccc(OC)c1COC(=O)N1CCc2ccccc2C1c1cc(Cl)ccc1OCC(=O)O (racemic) [Example 244]
8.54 |  | Cc1ccc(COC(=O)N2CCc3ccccc3C2c2cc(Cl)ccc2OCC(=O)O)c(C)c1 (racemic) [Example 245]
8.46 |  | Cc1cccc(COC(=O)N2CCc3ccccc3C2c2cc(Cl)ccc2OCC(=O)O)c1C (racemic) [Example 246]
7.76 |  | Cc1cccc(C)c1COC(=O)N1CCc2ccccc2C1c1cc(Cl)ccc1OCC(=O)O (racemic) [Example 247]
8.48 |  | O=C(O)COc1ccc(Cl)cc1C1c2ccccc2CCN1C(=O)OCc1ccc(F)cc1F (racemic) [Example 248]
8.41 |  | O=C(O)COc1ccc(Cl)cc1C1c2ccccc2CCN1C(=O)OCc1cccc(F)c1F (racemic) [Example 249]
8.16 |  | O=C(O)COc1ccc(Cl)cc1C1c2ccccc2CCN1C(=O)OCc1c(F)cccc1F (racemic) [Example 250]
7.91 |  | Cc1cc(C)c(COC(=O)N2CCc3ccccc3C2c2cc(Cl)ccc2OCC(=O)O)c(C)c1 (racemic) [Example 251]
8.40 |  | O=C(O)COc1ccc(Cl)cc1C1c2ccccc2CCN1C(=O)OCc1c(F)cccc1Cl (racemic) [Example 252]
8.19 |  | O=C(O)COc1ccc(Cl)cc1C1c2ccccc2CCN1C(=O)OCc1cc(Cl)ccc1Cl (racemic) [Example 253]
7.80 |  | COc1ccc(COC(=O)N2CCc3ccccc3C2c2cc(Cl)ccc2OCC(=O)O)c(OC)c1 (racemic) [Example 254]
8.31 |  | COc1cccc(COC(=O)N2CCc3ccccc3C2c2cc(Cl)ccc2OCC(=O)O)c1OC (racemic) [Example 255]
7.85 |  | Cc1ccc(COC(=O)N2CCc3ccccc3C2c2cc(Cl)ccc2OCC(=O)O)c(C)n1 (racemic) [Example 256]

pIC50 [1] | pIC50 [2] | SMILES
8.24 |  | N#Cc1cccc(COC(=O)N2CCc3ccccc3C2c2cc(Cl)ccc2OCC(=O)O)c1 (racemic) [Example 257]
8.12 |  | O=C(O)COc1ccc(Cl)cc1C1c2ccccc2CCN1C(=O)OCc1cc(F)ccc1F (racemic) [Example 258]
8.28 |  | O=C(O)COc1ccc(Cl)cc1C1c2ccccc2CCN1C(=O)OCc1cc(Cl)ccc1F (racemic) [Example 259]
7.82 |  | O=C(O)COc1ccc(Cl)cc1C1c2ccccc2CCN1C(=O)OCc1cc(F)ccc1Cl (racemic) [Example 260]
8.10 |  | Cn1ccc(COC(=O)N2CCc3ccccc3C2c2cc(Cl)ccc2OCC(=O)O)n1 (racemic) [Example 263]
7.42 |  | CC(C)COC(=O)N1CCc2ccccc2C1c1cc(Cl)ccc1OCC(=O)O (racemic) [Example 265]
7.67 |  | COCCOC(=O)N1CCc2ccccc2C1c1cc(Cl)ccc1OCC(=O)O (racemic) [Example 267]
8.31 |  | Cc1cc(C)n(COC(=O)N2CCc3ccccc3C2c2cc(Cl)ccc2OCC(=O)O)n1 (racemic) [Example 269]
8.08 |  | Cc1cc(COC(=O)N2CCc3ccccc3C2c2cc(Cl)ccc2OCC(=O)O)no1 (racemic) [Example 270]
7.92 |  | Cc1cc(COC(=O)N2CCc3ccccc3C2c2cc(Cl)ccc2OCC(=O)O)nn1C (racemic) [Example 271]
7.77 |  | O=C(O)COc1ccc(Cl)cc1C1c2ccccc2CCN1C(=O)OCc1ccc(Cl)cc1 (racemic) [Example 272]
 | 7.73 | Cc1ccc(COC(=O)N2CCc3ccccc3C2c2cc(Cl)ccc2OCC(=O)O)cc1 (racemic) [Example 360]
 | 7.64 | COc1ccc(COC(=O)N2CCc3ccccc3C2c2cc(Cl)ccc2OCC(=O)O)cc1 (racemic) [Example 361]
 | 7.84 | O=C(O)COc1ccc(Cl)cc1C1c2ccccc2CCN1C(=O)OCc1ccc(F)cc1 (racemic) [Example 362]
 | 7.47 | O=C(O)COc1ccc(Cl)cc1C1c2ccccc2CCN1C(=O)OCc1ccc(C(F)(F)F)cc1 (racemic) [Example 363]
 | 7.78 | O=C(O)COc1ccc(Cl)cc1C1c2ccccc2CCN1C(=O)OCc1cccc(Cl)c1 (racemic) [Example 364]
 | 7.42 | O=C(O)COc1ccc(Cl)cc1C1c2cc(F)ccc2CCN1C(=O)OCc1ccccc1 (racemic) [Example 365]
